Laboratory results reported in US9434734B2, “Substituted pyrazoloquinazolinones and pyrroloquinazolinones as allosteric modulators of group II metabotropic glutamate receptors” (Domain Therapeutics, priority 2012, dated 2016).
Structures can show the parent of a compound that is named as a salt.

melting point [°C] | Compound
> 250 | Cc1cc(-c2cc3n(C)c(=O)c4ccc(-c5cccnc5)cc4n3n2)cc(C)n1 (as salt: salt) [Example 116, 2-(2,6-Dimethyl-pyridin-4-yl)-4-methyl-8-pyridin-3-yl-4H-pyrazolo[1,5-a]quinazolin-5-one]
> 250 | Cc1cc(-c2cc3n(C)c(=O)c4ccc(-c5cnccc5C)cc4n3n2)cc(C)n1 (as salt: salt) [Example 119, 2-(2,6-Dimethyl-pyridin-4-yl)-4-methyl-8-(4-methyl-pyridin-3-yl)-4H-pyrazolo[1,5-a]quinazolin-5-one]
> 250 | Cc1ccc(-c2ccc3c(=O)n(C)c4cc(-c5cc(C)nc(C)c5)nn4c3c2)cn1 (as salt: salt) [Example 117, 2-(2,6-Dimethyl-pyridin-4-yl)-4-methyl-8-(6-methyl-pyridin-3-yl)-4H-pyrazolo[1,5-a]quinazolin-5-one]
> 250 | CCc1ncccc1-c1ccc2c(=O)n(C)c3cc(-c4cc(C)nc(C)c4)nn3c2c1 (as salt: salt) [Example 120, 2-(2,6-Dimethyl-pyridin-4-yl)-8-(2-ethyl-pyridin-3-yl)-4-methyl-4H-pyrazolo[1,5-a]quinazolin-5-one]
219 to 227 | Cn1c(=O)c2ccc(-c3cccc(-c4nn[nH]n4)c3)cc2n2nc(C3CCOCC3)cc12 (as salt: sodium) [Example 96, 4-Methyl-2-(tetrahydro-pyran-4-yl)-8-[3-(2H-tetrazol-5-yl)-phenyl]-4H-pyrazolo[1,5-a]quinazolin-5-one]
> 250 | Cc1cc(-c2cc3n(C)c(=O)c4ccc(-c5ccc(N)nc5)cc4n3n2)cc(C)n1 (as salt: salt) [Example 112, 8-(6-Amino-pyridin-3-yl)-2-(2,6-dimethyl-pyridin-4-yl)-4-methyl-4H-pyrazolo[1,5-a]quinazolin-5-one]
> 250 | Cn1c(=O)c2ccc(-c3cccnc3C(F)(F)F)cc2n2nc(-c3ccnc(C(F)(F)F)c3)cc12 [Example 142, 4-Methyl-2-(2-trifluoromethyl-pyridin-4-yl)-8-(2-trifluoromethyl-pyridin-3-yl)-4H-pyrazolo[1,5-a]quinazolin-5-one]
> 250 | Cc1cc(-c2cc3n(C)c(=O)c4ccc(-c5cc(C)nc(C)c5)cc4n3n2)ccn1 (as salt: salt) [Example 133, 8-(2,6-Dimethyl-pyridin-4-yl)-4-methyl-2-(2-methyl-pyridin-4-yl)-4H-pyrazolo[1,5-a]quinazolin-5-one]
> 250 | Cn1c(=O)c2ccc(-c3cn[nH]c3)cc2n2nc(C3CCOCC3)cc12 [Example 87, 4-Methyl-8-(1H-pyrazol-4-yl)-2-(tetrahydro-pyran-4-yl)-4H-pyrazolo[1,5-a]quinazolin-5-one]
> 250 | Cc1ncccc1-c1ccc2c(=O)n(C)c3cc(-c4cccnc4)nn3c2c1 (as salt: salt) [Example 134, 4-Methyl-8-(2-methyl-pyridin-3-yl)-2-pyridin-3-yl-4H-pyrazolo[1,5-a]quinazolin-5-one]
> 250 | Cc1cc(-c2cc3n(C)c(=O)c4ccc(-c5cccnc5C)cc4n3n2)cc(C)n1 (as salt: salt) [Example 113, 2-(2,6-Dimethyl-pyridin-4-yl)-4-methyl-8-(2-methyl-pyridin-3-yl)-4H-pyrazolo[1,5-a]quinazolin-5-one]
> 250 | Cc1cc(-c2ccc3c(=O)n(C)c4cc(-c5cc(C)nc(C)c5)nn4c3c2)cc(C)n1 (as salt: salt) [Example 114, 2,8-Bis-(2,6-dimethyl-pyridin-4-yl)-4-methyl-4H-pyrazolo[1,5-a]quinazolin-5-one]
> 250 | Cc1cc(-c2cc3n(C)c(=O)c4ccc(-c5cccnc5C)cc4n3n2)ccn1 (as salt: salt) [Example 132, 2-(2-methyl-pyridin-4-yl)-4-methyl-8-(2-methyl-pyridin-3-yl)-4H-pyrazolo[1,5-a]quinazolin-5-one]
> 250 | Cc1cncc(-c2ccc3c(=O)n(C)c4cc(-c5cc(C)nc(C)c5)nn4c3c2)c1 (as salt: salt) [Example 118, 2-(2,6-Dimethyl-pyridin-4-yl)-4-methyl-8-(5-methyl-pyridin-3-yl)-4H-pyrazolo[1,5-a]quinazolin-5-one]
211 to 213 | COc1ccc(-c2ccc3c(=O)n(C)c4cc(-c5cnn(C)c5)nn4c3c2)cc1 [Example 125, 8-(4-Methoxy-phenyl)-4-methyl-2-(1-methyl-1H-pyrazol-4-yl)-4H-pyrazolo[1,5-a]quinazolin-5-one]

Continued, compound first:

Compound | melting point [°C]
COCc1cccc(-c2ccc3c(=O)n(C)c4cc(-c5ccccc5)nn4c3c2)c1 [Example 9, 8-(3-Methoxymethyl-phenyl)-4-methyl-2-phenyl-4H-pyrazolo[1,5-a]quinazolin-5-one] | 132 to 134
Cc1ncccc1-c1ccc2c(=O)n(C)c3cc(-c4cnn(C)c4)nn3c2c1.Cl | 169 to 187
Cl.Cn1c(=O)c2ccc(-c3ccc(N4CCCCC4)nc3)cc2n2nc(-c3ccccc3)cc12 | 200 to 203
Cc1cc(-c2ccc3c(=O)n(CC(F)(F)F)c4cc(C5CCOCC5)nn4c3c2)cc(C)n1.Cl | > 250
Cc1ncccc1-c1ccc2c(=O)n(C)c3cc(C4CCOCC4)nn3c2c1.Cl | 167 to 169
CCCn1c(=O)c2ccc(-c3cc(C)nc(C)c3)cc2n2nc(C3CCCC3)cc12.Cl | > 250
Cn1c(=O)c2ccc(-c3cccc(-c4nn[nH]n4)c3)cc2n2nc(-c3ccccc3)cc12 (as salt: sodium) [Example 36, 4-Methyl-2-phenyl-8-[3-(2H-tetrazol-5-yl)-phenyl]-4H-pyrazolo[1,5-a]quinazolin-5-one] | > 250
CC(C)Cn1c(=O)c2ccc(-c3cccc(S(=O)(=O)N(C)C)c3)cc2n2nc(-c3ccccc3)cc12 [Example 41, 3-(4-isobutyl-5-oxo-2-phenyl-4,5-dihydro-pyrazolo[1,5-a]quinazolin-8-yl)-N,N-dimethyl-benzenesulfonamide] | 159 to 163
COCc1cc2n(C)c(=O)c3ccc(-c4cc(C)nc(C)c4)cc3n2n1.Cl | > 250
CCn1c(=O)c2ccc(-c3ccc(N)nc3)cc2n2nc(CCOC)cc12.Cl | 163 to 170
Cl.Cn1c(=O)c2ccc(-c3ccc(N)nn3)cc2n2nc(C3CCOCC3)cc12 | 140 to 146
Cc1cc(N)nc(C)c1-c1ccc2c(=O)n(C)c3cc(-c4ccccc4)nn3c2c1.Cl | > 250
Cl.Cn1c(=O)c2ccc(-c3ccncc3)cc2n2nc(C3CCOCC3)cc12 | 218 to 223
Cc1ccc(-c2ccc3c(=O)n(C)c4cc(C5CCOCC5)nn4c3c2)c(C)n1.Cl | 231 to 235
Cl.Cn1c(=O)c2ccc(-c3ccc(N)nc3)cc2n2nc(-c3ccccc3)cc12 [Example 2, 8-(6-Amino-pyridin-3-yl)-4-methyl-2-phenyl-4H-pyrazolo[1,5-a]quinazolin-5-one] | 241 to 244
COc1cccc(-c2ccc3c(=O)n(C)c4cc(-c5ccccc5)nn4c3c2)c1 [Example 11, 8-(3-Methoxy-phenyl)-4-methyl-2-phenyl-4H-pyrazolo[1,5-a]quinazolin-5-one] | 182 to 185
Cc1cc(-c2ccc3c(=O)n(CC(F)(F)F)c4cc(C5CCCC5)nn4c3c2)cc(C)n1.Cl | > 250
CCCn1c(=O)c2ccc(-c3ccc(N)nc3)cc2n2nc(CCOC)cc12.Cl | 96 to 102
Cc1cc(-c2cc3n(C)c(=O)c4ccc(-c5ccn[nH]5)cc4n3n2)cc(C)n1.Cl | > 250
CCCn1c(=O)c2ccc(-c3cc(C)nc(C)c3)cc2n2nc(CCOC)cc12.Cl | 120 to 125
Cn1c(=O)c2ccc(-c3nn[nH]n3)cc2n2nc(-c3ccccc3)cc12 [Example 22, 4-Methyl-2-phenyl-8-(2H-tetrazol-5-yl)-4H-pyrazolo[1,5-a]quinazolin-5-one] | > 250
Cn1c(=O)c2ccc(-c3ccc(F)cc3)cc2n2nc(-c3ccccc3)cc12 [Example 12, 8-(4-Fluoro-phenyl)-4-methyl-2-phenyl-4H-pyrazolo[1,5-a]quinazolin-5-one] | 178 to 180
CCn1c(=O)c2ccc(-c3cc(C)nc(C)c3)cc2n2nc(CCOC)cc12.Cl | 173 to 180
Cl.Cn1c(=O)c2ccc(-c3ccc(N4CCOCC4)nc3)cc2n2nc(-c3ccccc3)cc12 | 194 to 196
Cl.Cn1c(=O)c2ccc(-c3ccc(N)nc3C(F)(F)F)cc2n2nc(-c3ccccc3)cc12 | > 250
COCc1cc2n(C)c(=O)c3ccc(-c4ccc(N)nc4)cc3n2n1.Cl | 235 to 242
COc1ccc(-c2ccc3c(=O)n(C)c4cc(-c5ccccc5)nn4c3c2)cc1 [Example 7, 8-(4-Methoxy-phenyl)-4-methyl-2-phenyl-4H-pyrazolo[1,5-a]quinazolin-5-one] | > 250
COCCc1cc2n(C)c(=O)c3ccc(-c4cc(C)nc(C)c4)cc3n2n1.Cl | 241 to 245
